Ends that are not written are not given here.
Experiments:
S. aureus Newbold 305 = assay: MIC plate assay; type: cell-based, Staphylococcus aureus
Procedure: (§1) The MICs (Minimal Inhibitory Concentrations) of Gallidermin against […] and Streptococcus diacetylactis were determined. S. aureus Newbold 305 is a causative agent of Mastitis, S. diacetylactis is used in the manufacture of yoghurt and cheese.
(§2) Appropriate dilutions Gallidermin (300, 100, 30, 10, 3, 1, 0.3, 0.1 µg/ml) were prepared in milk and in M17 broth (Merck) and allowed to stand at room temperature for 30 min.
(§3) Then, […] aliquots of the solutions were spotted on M17 agar plates containing 0.5% of glucose. These plates had been overlaid with softagar (0.5% agarose) seeded with 1% of an A600=1 culture of either S. aureus or S. diacetylactis. The spots were allowed to dry, then the plates were incubated at 30° C. overnight.
(§4) The MICs were determined as the lowest concentration of antimicrobial protein causing the formation of a clear halo in the bacterial lawn.

[1] = test system: Streptococcus diacetylactis; assay: MIC plate assay; type: cell-based; settings: for MIC: S. diacetylactis
Procedure: as §1, §2, §3, §4

[2] = test system: Staphylococcus aureus Newbold 305; assay: Effect on S. aureus in milk (cfu, percent survival); type: cell-based; settings: for % survival: 37° C. 30 min
Procedure: Effect of Gallidermin on […] in milk Staphylococcus aureus Newbold 305 was grown in M17 broth (Merck) at 37° C. to an optical density at 600 nm of 1.0. Cells were collected by centrifugation and washed in 20 mM Tris-HCl pH 8.0. The bacterial pellet was resuspended in milk at a density of about 10^7 cells/ml. 1 ml aliquots of this suspension were incubated in eppendorf tubes with various amounts of Nisin, Lacticin 481 and Gallidermin. Incubations were at 37° C. for 30 min. A control with no antimicrobial added was run in parallel. After incubation the samples were centrifuged to obtain the cellular pellet, which was washed 2 times with 1 ml of 20 mM Tris-HCl pH 8.0 and resuspended in 1 ml of this buffer. […] of the appropriate dilutions were plated on M17 agar plates containing 0.5% glucose and incubated overnight at 37° C. Colony forming units (cfu) were determined and percent survival was calculated relative to the control.

Staphylococcus aureus = assay: Subclinical bovine mastitis infection model, intramammary treatment; type: in vivo, cows
From the text: Preliminary experiments for evaluating the potential of Gallidermin, Epidermin or of their pharmaceutically acceptable acid addition salts in subclinical bovine mastitis
Non-infected cows are selected based on non recovery of Staphylococcus aureus from two milk samples taken one day apart from all quarters. Then, 3 quarters are inoculated via the intramammary route using a suspension of Staphylococcus aureus. The 4th quarter serves as control. During the two to four weeks after inoculation, milk samples are taken from all quarters at least 3 times to see whether Staphylococcus aureus can be recovered, and therefore whether the quarter has become infected. A quarter is defined as infected, if Staphylococcus aureus is recovered from at least two of these milk samples. Treatments are assigned randomly to infected quarters and injected via the intramammary route. Milk samples are taken daily until a minimum of 14 days after the last treatment. A quarter is considered as cured if milk samples from that quarter become negative (i.e., no Staphylococcus aureus is recovered) within 7 days after the last treatment and stay negative throughout the 14 day sampling period.
This experimental model is used to have a fixed framework on which to evaluate treatments. To work with Staphylococcus aureus has the advantage that it is the most difficult Gram positive bacterium to treat and one of the most important bacteria causing bovine mastitis. Therefore, cure rates should be expected to be lower than for other Gram positive bacteria, such as Streptococci and coagulase-negative Staphylococci.
In addition, the infection is mild as it should be for subclinical mastitis.
To optimize work load in relation to man power, 8 to 16 cows are enrolled in each trial. Trials normally last 5 weeks.

## Gallidermin (IASKFLCTPGCAKTGSFNSYCC; not fully specified; ends and bridges not checked; also: lantibiotic; UniProt P21838 31-52, looked up) [natural product produced by the microorganism Staphylococcus gallinarum; lanthionine containing peptide]
S. aureus Newbold 305; dilutions in M17 broth
  MIC: 1 mug/ml
S. aureus Newbold 305; dilutions in milk
  MIC: 0.3 mug/ml
[1]; dilutions in M17 broth
  MIC: 0.3 mug/ml
[1]; dilutions in milk
  MIC: 1 mug/ml
[1]; milk and M17 broth
  activity against Streptococcus diacetylactis in milk versus broth: comparable activities
[2]
  activity against Staphylococcus aureus in the presence of milk: retains a high specific activity
[2]; 0.3 µg/ml
  % survival: 29%
[2]; 1 µg/ml
  % survival: 12%
[2]; 3 µg/ml
  % survival: 1%
[2]; 10 µg/ml
  % survival: 0.01%
Staphylococcus aureus; 3 × 1 mg, 27 qutrs, day 0 (before treatment)
  % of treated group positive: 93%
Staphylococcus aureus; 3 × 1 mg, 27 qutrs, day 1
  % of treated group positive: 37%
Staphylococcus aureus; 3 × 1 mg, 27 qutrs, day 2
  % of treated group positive: 11%
Staphylococcus aureus; 3 × 1 mg, 27 qutrs, day 3
  % of treated group positive: 26%
Staphylococcus aureus; 3 × 1 mg, 27 qutrs, day 4
  % of treated group positive: 56%
Staphylococcus aureus; 3 × 1 mg, 27 qutrs, day 5
  % of treated group positive: 59%
Staphylococcus aureus; 3 × 1 mg, 27 qutrs, day 7
  % of treated group positive: 56%
Staphylococcus aureus; 3 × 1 mg, 27 qutrs, day 8
  % of treated group positive: 56%
Staphylococcus aureus; 3 × 1 mg, 27 qutrs, day 9
  % of treated group positive: 52%
Staphylococcus aureus; 3 × 1 mg, 27 qutrs, day 10
  % of treated group positive: 56%
Staphylococcus aureus; 3 × 1 mg, 27 qutrs, day 11
  % of treated group positive: 56%
Staphylococcus aureus; 3 × 1 mg, 27 qutrs, day 12
  % of treated group positive: 52%
Staphylococcus aureus; 3 × 1 mg, 27 qutrs, day 14
  % of treated group positive: 48%
Staphylococcus aureus; 3 × 1 mg, 27 qutrs, day 15
  % of treated group positive: 52%
Staphylococcus aureus; 14 × 0.1 mg, 24 qutrs, day 0 (before treatment)
  % of treated group positive: 96%
Staphylococcus aureus; 14 × 0.1 mg, 24 qutrs, day 1
  % of treated group positive: 88%
Staphylococcus aureus; 14 × 0.1 mg, 24 qutrs, day 2
  % of treated group positive: 88%
Staphylococcus aureus; 14 × 0.1 mg, 24 qutrs, day 3
  % of treated group positive: 71%
Staphylococcus aureus; 14 × 0.1 mg, 24 qutrs, day 4
  % of treated group positive: 58%
Staphylococcus aureus; 14 × 0.1 mg, 24 qutrs, day 5
  % of treated group positive: 67%
Staphylococcus aureus; 14 × 0.1 mg, 24 qutrs, day 7
  % of treated group positive: 50%
Staphylococcus aureus; 14 × 0.1 mg, 24 qutrs, day 8
  % of treated group positive: 67%
Staphylococcus aureus; 14 × 0.1 mg, 24 qutrs, day 9
  % of treated group positive: 71%
Staphylococcus aureus; 14 × 0.1 mg, 24 qutrs, day 10
  % of treated group positive: 88%
Staphylococcus aureus; 14 × 0.1 mg, 24 qutrs, day 11
  % of treated group positive: 83%
Staphylococcus aureus; 14 × 0.1 mg, 24 qutrs, day 12
  % of treated group positive: 88%
Staphylococcus aureus; 14 × 0.1 mg, 24 qutrs, day 14
  % of treated group positive: 79%
Staphylococcus aureus; 14 × 0.1 mg, 24 qutrs, day 15
  % of treated group positive: 88%
Staphylococcus aureus; 14 × 0.1 mg, 24 qutrs, day 16
  % of treated group positive: 83%
Staphylococcus aureus; 14 × 0.1 mg, 24 qutrs, day 17
  % of treated group positive: 83%
Staphylococcus aureus; 14 × 0.1 mg, 24 qutrs, day 19
  % of treated group positive: 79%
Staphylococcus aureus; 14 × 0.1 mg, 24 qutrs, day 21
  % of treated group positive: 83%

## Lacticin 481
[2]
  activity against Staphylococcus aureus in the presence of milk: strongly inhibited
[2]; 1 µg/ml
  % survival: 74%
[2]; 3 µg/ml
  % survival: 51%
[2]; 10 µg/ml
  % survival: 36%
[2]; 30 µg/ml
  % survival: 30%
[2]; 100 µg/ml
  % survival: 12%

## Nisin
[2]
  activity against Staphylococcus aureus in the presence of milk: strongly inhibited
[2]; 3 µg/ml
  % survival: 65%
[2]; 10 µg/ml
  % survival: 15%
[2]; 30 µg/ml
  % survival: 1.8%
[2]; 100 µg/ml
  % survival: 0.2%

Source: US5710124A, “Method for combatting bovine mastitis” (Novartis Corporation, priority 1993, dated 1998)
